In one assay the target is T1, Protein RecA (Mycobacterium tuberculosis, UniProt P9WHJ3).
T1 sequence (P9WHJ3 whole entry): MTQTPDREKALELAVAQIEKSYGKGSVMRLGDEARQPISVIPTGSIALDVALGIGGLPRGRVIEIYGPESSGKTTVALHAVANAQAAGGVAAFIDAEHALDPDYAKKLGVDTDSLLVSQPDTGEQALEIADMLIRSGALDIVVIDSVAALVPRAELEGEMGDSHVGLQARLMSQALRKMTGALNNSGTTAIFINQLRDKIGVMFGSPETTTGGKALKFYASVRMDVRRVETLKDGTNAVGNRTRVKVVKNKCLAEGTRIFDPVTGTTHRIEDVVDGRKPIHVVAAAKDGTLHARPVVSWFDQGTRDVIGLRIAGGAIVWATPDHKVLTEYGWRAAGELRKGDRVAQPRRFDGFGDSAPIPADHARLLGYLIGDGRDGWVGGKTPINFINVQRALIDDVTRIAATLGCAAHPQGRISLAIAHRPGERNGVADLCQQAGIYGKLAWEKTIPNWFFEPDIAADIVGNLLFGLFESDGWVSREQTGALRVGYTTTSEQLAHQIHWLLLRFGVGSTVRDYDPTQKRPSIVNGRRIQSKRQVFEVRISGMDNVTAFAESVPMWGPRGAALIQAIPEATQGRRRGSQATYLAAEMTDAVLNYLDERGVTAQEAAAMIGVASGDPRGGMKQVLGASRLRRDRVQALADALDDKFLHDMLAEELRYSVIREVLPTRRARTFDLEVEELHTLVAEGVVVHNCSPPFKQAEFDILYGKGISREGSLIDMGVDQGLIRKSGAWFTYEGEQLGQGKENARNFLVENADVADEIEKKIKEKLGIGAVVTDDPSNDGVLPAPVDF
The experiment in a line: Fluorescence Cell-Free Homogeneous Dose Retest to Identify Inhibitors of RecA-Intein Splicing Activity. [Related pubchem assays (depositor defined):AID2097, AID2223, AID489010, AID492950]. In kind it is functional.

The target in assay [1] is T2, Replicative DNA helicase DnaB (Mycobacterium tuberculosis, UniProt P9WMR3).
T2 sequence (P9WMR3 whole entry): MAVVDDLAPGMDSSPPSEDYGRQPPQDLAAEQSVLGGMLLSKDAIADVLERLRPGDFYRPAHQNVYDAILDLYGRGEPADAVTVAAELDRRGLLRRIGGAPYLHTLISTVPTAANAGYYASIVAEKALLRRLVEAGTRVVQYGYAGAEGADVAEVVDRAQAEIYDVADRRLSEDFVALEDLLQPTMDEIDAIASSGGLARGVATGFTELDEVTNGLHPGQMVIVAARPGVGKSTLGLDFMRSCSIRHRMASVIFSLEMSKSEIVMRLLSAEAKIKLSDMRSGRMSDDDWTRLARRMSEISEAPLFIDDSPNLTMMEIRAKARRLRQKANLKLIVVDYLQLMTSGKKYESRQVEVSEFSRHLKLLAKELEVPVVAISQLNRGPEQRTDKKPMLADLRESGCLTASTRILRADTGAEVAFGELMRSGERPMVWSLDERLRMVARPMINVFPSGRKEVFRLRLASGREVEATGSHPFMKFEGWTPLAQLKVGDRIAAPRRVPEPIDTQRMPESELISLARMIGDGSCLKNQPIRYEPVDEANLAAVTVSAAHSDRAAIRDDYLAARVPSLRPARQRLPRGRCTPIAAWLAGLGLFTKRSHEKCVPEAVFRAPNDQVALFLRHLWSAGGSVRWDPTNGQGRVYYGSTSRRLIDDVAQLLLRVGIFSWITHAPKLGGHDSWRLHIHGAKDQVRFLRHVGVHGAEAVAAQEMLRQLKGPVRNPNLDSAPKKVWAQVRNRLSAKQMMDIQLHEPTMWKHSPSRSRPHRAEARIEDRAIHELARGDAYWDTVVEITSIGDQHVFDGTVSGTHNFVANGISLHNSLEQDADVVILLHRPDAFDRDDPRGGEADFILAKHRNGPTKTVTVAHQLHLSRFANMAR
The experiment in a line: DnaB intein splicing inhibitors, dose response, biochemical, cell-free fluorescence (AID 449749). In kind it is functional.

Assay [2] can be described thus: viability of uninfected HEp-2 cells – cell-based, HTS, cytotoxicity control for RSV inhibitor project, dose response (AID 2410). The settings on record: human respiratory syncytial virus. In kind it is functional.
For a further assay, the target named is Cytochrome P450 2D6 (Homo sapiens, UniProt P10635).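 Note: CYP2D6 member of a cytochrome P450 panel assay.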
The next assay has as its target Cytochrome P450 3A4 (Homo sapiens, UniProt P08684).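 Note: CYP3A4 tested as one member of a cytochrome P450 panel screen.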
A further assay concerns the target T3, Cytochrome P450 1A2 (Homo sapiens, UniProt P05177).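 Note: PubChem cytochrome P450 panel assay, CYP1A2 panel member.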
T3 sequence (P05177 whole entry): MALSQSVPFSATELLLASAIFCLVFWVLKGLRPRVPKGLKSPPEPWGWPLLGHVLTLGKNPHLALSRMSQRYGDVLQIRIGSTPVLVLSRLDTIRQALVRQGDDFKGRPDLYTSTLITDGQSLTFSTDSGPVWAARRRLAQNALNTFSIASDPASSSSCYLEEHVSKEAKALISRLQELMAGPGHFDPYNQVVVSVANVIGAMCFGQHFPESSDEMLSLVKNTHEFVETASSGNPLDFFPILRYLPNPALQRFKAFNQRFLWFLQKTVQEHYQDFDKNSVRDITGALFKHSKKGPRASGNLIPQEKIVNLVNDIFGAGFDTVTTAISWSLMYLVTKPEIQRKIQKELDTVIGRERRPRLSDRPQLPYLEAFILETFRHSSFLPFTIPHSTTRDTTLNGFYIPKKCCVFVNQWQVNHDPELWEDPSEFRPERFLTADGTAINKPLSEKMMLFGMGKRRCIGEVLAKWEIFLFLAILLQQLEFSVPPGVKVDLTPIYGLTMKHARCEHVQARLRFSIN

A further assay has as its system Streptococcus. The experiment in a line: GAS UMAA2166 growth inhibition – luminescence, BacTiterGlo, counter-screen for streptokinase expression inhibitor project, dose response (AID 1915).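 Note: potency for reduction of bacterial viability or growth.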 It is filed as functional, organism-based. On the technique in general: A counterscreen serves to expose hits that act by an unwanted route or on another target.
A further assay addresses T4, Streptokinase A (Streptococcus pyogenes serotype M1, UniProt P10520).
T4 sequence (P10520 whole entry): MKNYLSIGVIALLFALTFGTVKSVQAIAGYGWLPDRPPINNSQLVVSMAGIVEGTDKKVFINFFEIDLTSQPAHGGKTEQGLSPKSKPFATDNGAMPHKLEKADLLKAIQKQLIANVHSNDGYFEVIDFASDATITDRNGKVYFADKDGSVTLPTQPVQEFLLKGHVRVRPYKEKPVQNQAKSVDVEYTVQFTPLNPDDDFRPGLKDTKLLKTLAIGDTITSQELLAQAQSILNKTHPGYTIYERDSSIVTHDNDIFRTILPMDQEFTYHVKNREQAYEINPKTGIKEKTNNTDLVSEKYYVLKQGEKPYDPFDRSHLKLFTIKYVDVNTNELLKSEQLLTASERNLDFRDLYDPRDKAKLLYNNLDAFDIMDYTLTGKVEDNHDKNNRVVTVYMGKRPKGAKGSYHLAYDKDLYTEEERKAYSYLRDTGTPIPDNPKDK
The experiment in a line: viability-normalized secreted streptokinase activity reduction – plasminogen activation absorbance, OD405, dose response (AID 1914).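 Note: secreted streptokinase activity via plasminogen activation per viability signal from cell pellet.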 It is filed as functional, Streptococcus pyogenes M1 GAS.

In assay [3] the test system is Streptococcus sp. 'group A'. Nature of the assay: Streptococcus pyogenes SK(-)GAS viability under kanamycin – luminescence, BacTiterGlo, confirmation, counter-screen for streptokinase expression inhibitor project, dose response (AID 1900). It is filed as functional, organism-based.
The target of another assay is Cytochrome P450 2C19 (Homo sapiens, UniProt P33261). The experiment in a line: Cytochrome panel assay with activity outcomes. Panel member name: p450-cyp2c19 Compounds with AC50 equal or less than 10 uM are considered active. It is filed as functional. The settings on record: read-out: AC50.

The structures appear in SMILES notation. Activity calls are given as the source filed them.

Chain of Cytochrome P450 2D6 (P10635 whole entry): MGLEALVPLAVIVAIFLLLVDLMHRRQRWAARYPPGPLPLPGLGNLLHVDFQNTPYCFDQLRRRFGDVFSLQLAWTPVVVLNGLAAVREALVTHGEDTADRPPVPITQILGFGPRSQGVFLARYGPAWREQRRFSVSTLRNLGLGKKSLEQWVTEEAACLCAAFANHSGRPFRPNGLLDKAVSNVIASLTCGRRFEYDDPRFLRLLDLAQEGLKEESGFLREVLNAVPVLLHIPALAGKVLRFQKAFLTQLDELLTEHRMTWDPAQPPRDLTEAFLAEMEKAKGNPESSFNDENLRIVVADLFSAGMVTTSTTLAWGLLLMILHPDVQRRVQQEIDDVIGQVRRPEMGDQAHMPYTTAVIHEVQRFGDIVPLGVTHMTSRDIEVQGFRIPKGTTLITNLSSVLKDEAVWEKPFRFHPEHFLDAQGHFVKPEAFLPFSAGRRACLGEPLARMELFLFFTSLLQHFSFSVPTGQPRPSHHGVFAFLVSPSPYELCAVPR
Chain of Cytochrome P450 3A4 (P08684 whole entry): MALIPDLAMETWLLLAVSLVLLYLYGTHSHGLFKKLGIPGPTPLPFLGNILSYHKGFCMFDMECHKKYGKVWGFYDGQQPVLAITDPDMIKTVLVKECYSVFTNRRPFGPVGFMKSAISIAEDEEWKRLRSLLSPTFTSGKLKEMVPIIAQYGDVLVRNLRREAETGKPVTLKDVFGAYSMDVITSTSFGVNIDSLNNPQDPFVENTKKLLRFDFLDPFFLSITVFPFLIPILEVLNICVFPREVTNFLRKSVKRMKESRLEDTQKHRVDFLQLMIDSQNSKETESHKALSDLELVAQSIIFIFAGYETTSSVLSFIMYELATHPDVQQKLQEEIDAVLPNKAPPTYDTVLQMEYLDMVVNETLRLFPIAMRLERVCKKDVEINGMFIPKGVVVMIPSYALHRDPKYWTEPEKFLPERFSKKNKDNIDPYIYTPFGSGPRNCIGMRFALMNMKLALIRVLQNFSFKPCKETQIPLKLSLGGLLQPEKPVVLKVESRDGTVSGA
Chain of Cytochrome P450 2C19 (P33261 whole entry): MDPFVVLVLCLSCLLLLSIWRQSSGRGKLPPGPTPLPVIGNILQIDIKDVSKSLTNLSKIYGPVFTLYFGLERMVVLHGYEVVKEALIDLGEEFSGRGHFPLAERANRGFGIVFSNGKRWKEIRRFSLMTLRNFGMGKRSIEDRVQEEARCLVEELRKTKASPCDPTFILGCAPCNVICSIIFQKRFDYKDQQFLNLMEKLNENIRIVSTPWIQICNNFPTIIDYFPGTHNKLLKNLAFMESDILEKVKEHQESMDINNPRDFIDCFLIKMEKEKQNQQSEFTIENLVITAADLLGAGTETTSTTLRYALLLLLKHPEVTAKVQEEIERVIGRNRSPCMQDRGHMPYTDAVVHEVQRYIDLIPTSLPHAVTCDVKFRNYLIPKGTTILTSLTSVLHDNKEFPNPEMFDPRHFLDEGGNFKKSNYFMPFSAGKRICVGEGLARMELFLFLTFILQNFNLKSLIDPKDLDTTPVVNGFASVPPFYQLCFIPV

On to `COc1ccc(-n2c(=O)c3ccccc3c3ccccc3c2=O)cc1`, for which the EC50 on Protein RecA was 23.3 µM (active). The half-maximal activity concentration (AC50) in assay [1] is 10.1 µM (active).
In the case of `CCOc1ccc2cc(/C=C/C(=O)c3ccco3)c(Cl)nc2c1`, in assay [2], the CC50 is 47.7 µM (active).
In the case of `C[C@@H]1CC=C[C@H]2[C@H]1C(=O)N(Cc1ccccc1)[C@H]2c1ccc(C(F)(F)F)cc1`, on Protein RecA, the concentration giving a half-maximal response (EC50) is 87 µM (active). Also, the half-maximal activity concentration (AC50) in [1] is 22.3 µM (active).
Turning to `Cc1ccc(OCCn2cc(C#N)c3ccccc32)cc1`, the CC50 in assay [2] was 28.8 µM (active).
As to `O=C(Nc1ccc(S(=O)(=O)N2CCCCC2)cc1)C1CC(=O)N(c2ccc(Cl)cc2)C1` (stereo not drawn), the cytotoxic concentration (CC50) in assay [2] was 19.9 µM (active).
With `COc1ccccc1N(Cc1ccccc1)S(=O)(=O)c1cccc(C(=O)Nc2ccccn2)c1`, the cytotoxic concentration (CC50) in assay [2] was 11.6 µM (active).
In the case of `O=C(CSc1ccccn1)Nc1nc2ccc(Br)cc2s1`, the half-maximal activity concentration (AC50) on Cytochrome P450 2D6 was 15.8 µM (inconclusive); on Cytochrome P450 3A4, 22.4 µM (inconclusive).
For `Cc1ccc2sc3ccc(NC(=O)c4ccccc4Cl)cc3c(=O)c2c1`, the cytotoxic concentration (CC50) in [2] was 15.9 µM (active).
In the case of `COc1ccc(C2=NN(c3nc(C)cc(C)n3)C(=O)C2)cc1`, the EC50 on Protein RecA is 2.81 µM (active). Further, in assay [1], the AC50 was 4.53 µM (active).
Turning to `O=c1cc(C2CCNCC2)[nH][nH]1`, the 50% effective concentration (EC50) at Protein RecA is 1.41 µM (active). Further, the AC50 in assay [1] was 3.73 µM (active).
For the compound `Cc1c2cccc(Sc3ccccc3)c2c2c3c(cccc13)[S+](c1ccccc1)C2` (stereo not drawn), the values for the AC50 on Cytochrome P450 2D6 and at Cytochrome P450 3A4 were 5.01 µM (inconclusive) and 3.16 µM (inconclusive), respectively.
With `O=C(NC1CCCC1)C(c1ccc(F)cc1)N(Cc1ccc(F)cc1)C(=O)CCl` (stereo not drawn), the concentration giving a half-maximal response (EC50) on Protein RecA is 0.557 µM (active). For the same compound, the concentration at half-maximal activity (AC50) in assay [1] is 4.67 µM (active).
Regarding `CC1CCc2c(sc3nc(CSc4nc[nH]n4)nc(O)c23)C1` (stereo not drawn), the cytotoxic concentration (CC50) in [2] was 24.2 µM (active).
With `O=C(c1ccncc1)N1CCC2(CC1)CN(c1ncccn1)C2`, the AC50 was 6.31 µM (inconclusive) on Cytochrome P450 1A2 and 20 µM (inconclusive) at Cytochrome P450 2D6.
In the case of `COc1cccc(NC(=O)Nc2nnc(N3C(C)CCCC3C)s2)c1` (stereo not drawn), the cytotoxic concentration (CC50) in [2] was > 50 µM (active).
Consider `CC(=O)C(C)Oc1ccc2c3c(c(=O)oc2c1)CCCC3` (stereo not drawn), for which the CC50 in assay [2] is 31.8 µM (active).
For `COc1ccc2ccc3c(c2c1)N=C[C@]1(O3)N(C)c2ccccc2C1(C)C`, the EC50 in the assay with Streptococcus is > 150 µM (not active); on Protein RecA it was 3.66 µM (active); on Streptokinase A, 3.17 µM (active); in assay [3], 35.4 µM (active). Further, the AC50 in [1] was > 380 µM (inactive).
As for `Cc1[nH]n(C)c(=O)c1C(=O)c1c(-c2ccccc2Cl)noc1C`, the EC50 on Protein RecA is 2.61 µM (active). In addition, the concentration at half-maximal activity (AC50) in assay [1] is 6.51 µM (active).
On the same counts, the results for `O=C(CCN1C(=O)/C(=C/c2cccs2)SC1=S)Nc1cccc(O)c1` are 125 µM (active) and 1.64 µM (active).
In the case of `Cc1c(C(C)(C)O)[nH]c2ccc(C(F)(F)F)cc12`, the CC50 in [2] is 33.8 µM (active).
Take `Cc1n[nH]c2c1C(CCc1ccccc1)C(C#N)=C(N)O2` (stereo not drawn): the EC50 on Protein RecA is 6.58 µM (active). In addition, the AC50 in [1] was 24.9 µM (active).
With `Cc1noc(C)c1-c1cc(NC2CC2)ncn1`, the AC50 was 20 µM (inconclusive) at Cytochrome P450 2D6, 31.6 µM (inconclusive) on Cytochrome P450 2C19 and 25.1 µM (inconclusive) on Cytochrome P450 3A4.
Regarding `Cc1ccccc1C1CCCN(C(=O)c2cc(COc3c(F)cccc3F)on2)C1` (stereo not drawn), the CC50 in assay [2] was 21.6 µM (active).
Regarding `CON(c1nc(N(C)C)nc(N(C)C)n1)S(=O)(=O)c1ccccc1Cl`, the AC50 is 14.1 µM (inconclusive) on Cytochrome P450 1A2 and 25.1 µM (inconclusive) at Cytochrome P450 2D6.
Turning to `CC1(c2ccccc2)ON(c2ccccc2C(F)(F)F)C1=O` (stereo not drawn), the half-maximal cytotoxic concentration (CC50) in [2] is 49.9 µM (active).

The term EC50 denotes the concentration giving half of the maximal effect. Usually AC50 stands for the concentration at which the activity in the assay is half-maximal. A word on the CC50: it is the concentration that lowers cell viability or growth by half.

Values taken from ChEMBL document CHEMBL1201862, “PubChem BioAssay data set” (2004).
